Source: patent US6472389B1, “Pyrrolo[1,2-b] pyridazine derivatives having sPLA2 inhibitory effect” (Shionogi & Co., Ltd., priority 1998, dated 2002)
pIC50: −log10 of the molar value.

Columns and labels:
[1] = target: T1, recombinant human secretory phospholipase A2 (Homo sapiens, UniProt P14555); assay: Inhibition test of human secretory phospholipase A2 (chromogenic assay, 96 well microtiterplate); format: biochemical; settings: sPLA2 50 ng/well, 40° C., 30 minutes, OD 405 nm, substrate 1,2-bis(heptanoylthio)-1,2-dideoxy-sn-glycero-3-phospholylcholine
T1 sequence (P14555 21-144): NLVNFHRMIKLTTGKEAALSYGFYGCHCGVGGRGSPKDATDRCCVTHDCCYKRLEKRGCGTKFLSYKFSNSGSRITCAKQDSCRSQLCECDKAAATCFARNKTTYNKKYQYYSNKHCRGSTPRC
Text: Inhibition Test of Human Secretory Phospholipase A2
In order to identify and evaluate an inhibitor of recombinant human secretory phospholipase A2, the following chromogenic assay is utilized. The assay herein has been applied for high volume screening wherein 96 well microtiterplate is used. A general explanation for such assay is described in “Analysis of Human Synovial Fluid Phospholipase A2 on Short Chain Phosphatidylcholine-Mixed Micelles: Development of a Spectrophotometric Assay Suitable for a Micortiterplate Reader” (Analytical Biochemistry, 204, pp 190-197, 1992 by Laure. J. Reynolds. Lori L. Hughes and Edward A. Dennis: the disclosure of which is incorporated herein for reference.
Bovine Serum Albumin (fatty acid free) (1 g/L) (Sigma A-7030)
pH 7.5 (adjusted with NaOH)
pH 4.5 (adjusted with acetic acid)
1 mg of sPLA2 is dissolved in 1 ml of an enzyme buffer. Thereafter, the solution is maintained at 4° C.
In the assay, 5 μl of the solution is diluted with 1995 μl of the reaction buffer to be used.
198 mg of 5,5′-dithiobis-2-[…] (manufactured by Wako Pure Chemicals) is dissolved in 100 ml of H2O
100 mg of racemic 1,2-bis(heptanoylthio)-1,2-dideoxy-sn-glycero-3-phospholylcholine is dissolved in 1 ml of chloroform.
624.9 mg of Triton-X 100 is dissolved in the reaction buffer.
Enzyme Reaction: for 1 plate of Microtiterplate
1) 0.106 ml of the substrate solution is put in a centrifugal tube, and nitrogen gas is jetted to remove the solvent. 0.54 ml of Triton-X 100 is added thereto, the mixture is stirred, thereafter it is sonified in a bath type sonification to dissolve. To the resulting product are added 17.8 m1l of the reaction buffer and 0.46 ml of DTNB, and 0.18 ml each of the admixture is poured to wells of the 96 well microtiterplate.
2) 10 μl of a test compound (or solvent blank) are added in accordance with alignment of plates which has been previously set.
3) Incubation is effected at 40° C. for 15 minutes.
4) 20 μl of an enzyme solution (sPLA2) which has been previously diluted (50 ng/well) are added to start reaction (40° C., 30 minutes).
5) Changes in absorbancy for 30 minutes are measured by a plate reader, and inhibition activity was calculated (OD: 405 nm).
6) IC50 was determined by plotting log concentration with respect to inhibition values within 10% to 90% inhibiting range.

| SMILES | pIC50 [1] | melting point |
| --- | --- | --- |
| COC(=O)COc1cc(-c2ccccc2)nn2c(Cc3ccccc3)c(C)c(C(=O)C(N)=O)c12 [Compound I-45] | 7.52 | 251 to 252 °C |
| CCc1c(C(=O)C(N)=O)c2c(OCC(=O)OC)cc(COc3ccc(OC)cc3)nn2c1Cc1ccccc1 [Compound I-46] | 6.57 | 167 to 168 °C |
| CCc1c(C(=O)C(N)=O)c2c(OCC(=O)OC)cc(COc3ccc(OC)c(OC)c3)nn2c1Cc1ccccc1 [Compound I-47] | 6.21 | 176 to 179 °C |
| CCc1c(C(=O)C(N)=O)c2c(OCC(=O)OC)cc(COc3ccc(C)cc3)nn2c1Cc1ccccc1 [Compound I-48] | 6.68 | 191 to 192 °C |
| CCc1c(C(=O)C(N)=O)c2c(OCC(=O)OC)cc(CN3C(=O)CCC3=O)nn2c1Cc1ccccc1 [Compound I-49] | 5.11 | 188 to 189 °C |
| CCc1c(C(=O)C(N)=O)c2c(OCC(=O)OCc3ccccc3)cc(CN=[N+]=[N-])nn2c1Cc1ccccc1 [Compound I-50] | 6.28 | 178 to 179 °C |
| COC(=O)COc1cc(Cc2ccccc2)nn2c(C)c(C)c(C(=O)C(N)=O)c12 [Compound I-51] | 4.59 | 199 to 201 °C |
| COC(=O)COc1cc(C)nn2c(Cc3ccccc3-c3ccc(F)cc3)c(C)c(C(=O)C(N)=O)c12 [Compound I-52] | 7.03 | 194 to 196 °C |
| COC(=O)COc1cc(C)nn2c(Cc3ccc(-c4ccccc4)cc3)c(C)c(C(=O)C(N)=O)c12 [Compound I-53] | 5.43 | 234 to 236 °C |
| CCc1c(C(=O)C(N)=O)c2c(OCC(=O)OC)cc(C)nn2c1Cc1ccccc1-c1ccc(F)cc1 [Compound I-54] | 6.83 | 190 to 192 °C |
| CCOC(=O)COc1cc(C)nn2c(Cc3ccccc3)c(C)c(C(=O)C(N)=O)c12 [Compound I-55] | 7.25 | 197 to 199 °C |
| Cc1cc(OCC(=O)OCCN2CCOCC2)c2c(C(=O)C(N)=O)c(C)c(Cc3ccccc3)n2n1 [Compound I-56] | 7.28 | 160 to 161 °C |
| CCc1c(C(=O)C(N)=O)c2c(OCC(=O)O)cc(CN3CCCC3)nn2c1Cc1ccccc1 [Compound I-59] | 5.97 | 228 to 231 °C (dec.) |
| CCc1c(C(=O)C(N)=O)c2c(OCC(=O)O)cc(CN3CCOCC3)nn2c1Cc1ccccc1 [Compound I-60] | 6.44 | 167 to 168 °C |
| CCc1c(C(=O)C(N)=O)c2c(OCC(=O)O)cc(CN3CCN(C)CC3)nn2c1Cc1ccccc1 [Compound I-61] | 5.58 | 249 to 250 °C (dec.) |
| CCc1c(C(=O)C(N)=O)c2c(OCC(=O)O)cc(CN3C(=O)CCC3=O)nn2c1Cc1ccccc1 [Compound I-79] | 6.33 | 210 to 212 °C (dec.) |
| Cc1c(C(=O)C(N)=O)c2c(OCC(=O)O)cc(Cc3ccccc3)nn2c1C [Compound I-81] | 5.09 | 232 to 233 °C (dec.) |
| Cc1cc(OCC(=O)O)c2c(C(=O)C(N)=O)c(C)c(Cc3ccccc3-c3ccc(F)cc3)n2n1 [Compound I-82] | 7.03 | 242 to 244 °C (dec.) |
| Cc1cc(OCC(=O)O)c2c(C(=O)C(N)=O)c(C)c(Cc3ccc(-c4ccccc4)cc3)n2n1 [Compound I-83] | 7.08 | 271 to 276 °C (dec.) |

Stronger by pIC50 [1], values ahead:

| pIC50 [1] | melting point | SMILES |
| --- | --- | --- |
| 8.15 | 218 to 220 °C (dec.) | CCc1c(C(=O)C(N)=O)c2c(OCC(=O)O)cc(COc3ccccc3)nn2c1Cc1ccccc1 [Compound I-57] |
| 8.05 | 226 to 228 °C (dec.) | CCc1c(C(=O)C(N)=O)c2c(OCC(=O)O)cc(CSc3ccccc3)nn2c1Cc1ccccc1 [Compound I-58] |
| 7.92 | 245 to 248 °C (dec.) | CCc1c(C(=O)C(N)=O)c2c(OCC(=O)O)cc(-c3ccc(F)cc3)nn2c1Cc1ccccc1 [Compound I-62] |
| 8.22 | 250 to 253 °C (dec.) | CCc1c(C(=O)C(N)=O)c2c(OCC(=O)O)cc(-c3ccc(F)cc3)nn2c1Cc1ccccc1 [Compound I-63] |
| 8.15 | 248 to 250 °C (dec.) | CCc1c(C(=O)C(N)=O)c2c(OCC(=O)O)cc(-c3ccc(OC)cc3)nn2c1Cc1ccccc1 [Compound I-64] |
| 8.15 | 218 to 219 °C (dec.) | CCc1c(C(=O)C(N)=O)c2c(OCC(=O)O)cc(C)nn2c1Cc1ccccc1-c1ccccc1 [Compound I-65] |
| 8.22 | 188 to 190 °C | CCc1c(C(=O)C(N)=O)c2c(OCC(=O)O)cc(C)nn2c1Cc1cccc(Oc2ccccc2)c1 [Compound I-66] |
| 7.80 | 272 to 275 °C (dec.) | CCc1c(C(=O)C(N)=O)c2c(OCC(=O)O)cc(C3CCCCC3)nn2c1Cc1ccccc1 [Compound I-67] |
| 7.60 | 250 to 252 °C (dec.) | CCc1c(C(=O)C(N)=O)c2c(OCC(=O)O)cc(C3CCCC3)nn2c1Cc1ccccc1 [Compound I-68] |
| 8.10 | 240 to 243 °C (dec.) | CCc1c(C(=O)C(N)=O)c2c(OCC(=O)O)cc(-c3ccc4c(c3)OCO4)nn2c1Cc1ccccc1 [Compound I-69] |
| 8.05 | 200 to 201 °C | CCc1cc(OCC(=O)O)c2c(C(=O)C(N)=O)c(C)c(Cc3ccccc3)n2n1 [Compound I-70] |
| 8.10 | 204 to 205 °C | CCCc1cc(OCC(=O)O)c2c(C(=O)C(N)=O)c(C)c(Cc3ccccc3)n2n1 [Compound I-71] |
| 8.05 | 245 to 247 °C (dec.) | Cc1c(C(=O)C(N)=O)c2c(OCC(=O)O)cc(Cc3ccccc3)nn2c1Cc1ccccc1 [Compound I-72] |
| 7.72 | 228 to 229 °C (dec.) | CSCc1cc(OCC(=O)O)c2c(C(=O)C(N)=O)c(C)c(Cc3ccccc3)n2n1 [Compound I-73] |
| 7.82 | 197 to 198 °C | COCc1cc(OCC(=O)O)c2c(C(=O)C(N)=O)c(C)c(Cc3ccccc3)n2n1 [Compound I-74] |
| 8.05 | 215 to 216 °C | CCc1c(C(=O)C(N)=O)c2c(OCC(=O)O)cc(COc3ccc(F)cc3)nn2c1Cc1ccccc1 [Compound I-75] |
| 8.22 | 218 to 219 °C | CCc1c(C(=O)C(N)=O)c2c(OCC(=O)O)cc(COc3ccc(OC)cc3)nn2c1Cc1ccccc1 [Compound I-76] |
| 8.00 | 204 to 206 °C | CCc1c(C(=O)C(N)=O)c2c(OCC(=O)O)cc(COc3ccc(OC)c(OC)c3)nn2c1Cc1ccccc1 [Compound I-77] |
| 7.89 | 199 to 200 °C (dec.) | CCc1c(C(=O)C(N)=O)c2c(OCC(=O)O)cc(CN=[N+]=[N-])nn2c1Cc1ccccc1 [Compound I-80] |
| 8.10 | 214 to 216 °C (dec.) | CCc1c(C(=O)C(N)=O)c2c(OCC(=O)O)cc(C)nn2c1Cc1ccccc1-c1ccc(F)cc1 [Compound I-84] |
